Laboratory results as given in patent US20070128217A1 (priority 2003, published 2007).

Key:
[1] = system: antibodies in sera from SARS patients (sera 1a, 1b, 2, 6, 37, 62, London, SARS-yellow, SARS-green); type: binding, human; set-up: Binding of serum 6 to linear peptides of protein X1 of SARS-CoV Urbani / Binding of serum 37 to linear peptides of protein X1 of SARS-CoV Urbani / Binding of serum 6 to looped/cyclic peptide (PEPSCAN-ELISA) / Binding of serum 37 to looped/cyclic peptide (PEPSCAN-ELISA) / Binding of serum 37 to looped/cyclic peptides of protein X1 of SARS-CoV Urbani / Binding of serum 6 to linear peptides of protein X2 / Binding of serum 37 to linear peptides of protein X2 / Binding of serum 37 to looped/cyclic peptides of protein X2 of SARS-CoV Urbani / Binding of serum 6 to linear peptides of protein M of SARS-CoV Urbani / Binding of serum 37 to linear peptides of protein M of SARS-CoV Urbani / Binding of serum 6 to looped/cyclic peptides of protein M of SARS-CoV Urbani / Binding of serum 37 to looped/cyclic peptides of protein M of SARS-CoV Urbani / Binding of serum 6 to linear peptides of protein X3 of SARS-CoV Urbani / Binding of serum 37 to linear peptides of protein X3 of SARS-CoV Urbani / Binding of serum 37 to looped/cyclic peptides of protein X3 of SARS-CoV Urbani / Binding of serum 6 to linear peptides of protein X4 of SARS-CoV Urbani / Binding of serum 37 to linear peptides of protein X4 of SARS-CoV Urbani / Binding of serum 37 to looped/cyclic peptides of protein X4 of SARS-CoV Urbani / Binding of serum 6 to linear peptides of protein X5 of SARS-CoV Urbani / Binding of serum 37 to linear peptides of protein X5 of SARS-CoV Urbani / Binding of serum 37 to looped/cyclic peptides of protein X5 of SARS-CoV Urbani / Binding of serum 6 to linear peptides of protein N of SARS-CoV Urbani / Binding of serum 37 to linear peptides of protein N of SARS-CoV Urbani / Binding of serum 6 to linear peptide (PEPSCAN-ELISA) / Binding of serum 1a to looped/cyclic peptides of protein N of SARS-CoV Urbani / Binding of serum 1b to looped/cyclic peptides of protein N of SARS-CoV Urbani / Binding of serum 2 to looped/cyclic peptides of protein N of SARS-CoV Urbani / Binding of serum 6 to looped/cyclic peptides of protein N of SARS-CoV Urbani / Binding of serum 37 to looped/cyclic peptides of protein N of SARS-CoV Urbani / Binding of serum 62 to looped/cyclic peptides of protein N of SARS-CoV Urbani / Binding of serum London to looped/cyclic peptides of protein N of SARS-CoV Urbani / Binding of serum SARS-green to looped/cyclic peptides of protein N of SARS-CoV Urbani: unit not given here
[2] = system: control sera (pooled serum of ten healthy LUMC hospital workers; commercial negative donor pooled serum from the Dutch bloodbank); type: binding, human; set-up: Binding of Control serum LUMC to linear peptides / Binding of Control serum Blood-bank to linear peptides / Binding of Control serum LUMC to looped peptides / Binding of Control Serum Blood-Bank to Looped peptides / Binding of Control serum LUMC to linear peptides of the protein M of SARS-CoV Urbani / Binding of Control serum Blood-bank to linear peptides of the protein M of SARS-CoV Urbani / Binding of Control serum LUMC to looped peptides of the protein M of SARS-CoV Urbani / Binding of Control Serum Blood-Bank to Looped peptides of the protein M of SARS-CoV Urbani: unit not given here
[3] = system: rabbit serum obtained by immunizing a rabbit with the SARS-CoV strain Frankfurt 1; type: binding; set-up: Binding of a rabbit serum to linear peptides / Binding of a rabbit serum to looped peptides / Rabbit serum linear peptides / Rabbit serum looped peptides / Binding of a rabbit serum to linear peptides of protein N of SARS-CoV Urbani (Rabbit serum linear peptides) / Binding of a rabbit serum to looped/cyclic peptides of protein N of SARS-CoV Urbani (Rabbit serum looped peptides): unit not given here
[4] = system: recombinant human anti-SARS-CoV antibody 03-018; type: binding; set-up: Binding of antibody 03-018 to linear peptides of the N protein of SARS-CoV Urbani / Binding of antibody 03-018 to looped/cyclic peptides of the N protein of SARS-CoV Urbani: unit not given here

Sequence | Binding of serum 1a to looped/cyclic peptides of protein N of SARS-CoV Urbani [1] | Binding of serum 1b to looped/cyclic peptides of protein N of SARS-CoV Urbani [1] | Binding of serum 2 to looped/cyclic peptides of protein N of SARS-CoV Urbani [1] | Binding of serum 6 to looped/cyclic peptides of protein N of SARS-CoV Urbani [1] | Binding of serum 37 to looped/cyclic peptides of protein N of SARS-CoV Urbani [1] | Binding of serum 62 to looped/cyclic peptides of protein N of SARS-CoV Urbani [1] | Binding of serum London to looped/cyclic peptides of protein N of SARS-CoV Urbani [1] | Binding of serum SARS-green to looped/cyclic peptides of protein N of SARS-CoV Urbani [1] | Binding of serum SARS-yellow to looped/cyclic peptides of protein N of SARS-CoV Urbani [1] | Binding of Control Serum Blood-Bank to Looped peptides [2] | Binding of Control serum Blood-bank to linear peptides [2] | Binding of Control serum LUMC to linear peptides [2] | Binding of Control serum LUMC to looped peptides [2] | Binding of a rabbit serum to linear peptides of protein N of SARS-CoV Urbani (Rabbit serum linear peptides) [3] | Binding of a rabbit serum to looped/cyclic peptides of protein N of SARS-CoV Urbani (Rabbit serum looped peptides) [3] | Binding of antibody 03-018 to linear peptides of the N protein of SARS-CoV Urbani [4] | Binding of antibody 03-018 to looped/cyclic peptides of the N protein of SARS-CoV Urbani [4] | Binding of serum 1a to linear peptides of protein N of SARS-CoV Urbani [1] | Binding of serum 1b to linear peptides of protein N of SARS-CoV Urbani [1] | Binding of serum 2 to linear peptides of protein N of SARS-CoV Urbani [1] | also measured
SRGGSQASSRSSSRS | 0.4 | 0.3 | 0.3 | 0.3 | 0.5 | 0.3 | 0.3 | 0.2 | 0.2 | 0.5 | 0.7 | 0.6 | 0.6 | 0.2 | 0.5 | 0.1 | 0.2 |  |  |  | Binding of serum 1a to linear peptide (PEPSCAN-ELISA) [1]: 0.3; Binding of serum 1b to linear peptide (PEPSCAN-ELISA) [1]: 0.1; Binding of serum 2 to linear peptide (PEPSCAN-ELISA) [1]: 0.3; Binding of serum 6 to linear peptide (PEPSCAN-ELISA) [1]: 0.4; Binding of serum 37 to linear peptide (PEPSCAN-ELISA) [1]: 0.6; Binding of serum 62 to linear peptide (PEPSCAN-ELISA) [1]: 0.7; Binding of serum London to linear peptide (PEPSCAN-ELISA) [1]: 0.4; Binding of serum SARS-green to linear peptide (PEPSCAN-ELISA) [1]: 0.1; Binding of serum SARS-yellow to linear peptide (PEPSCAN-ELISA) [1]: 0.9
RRATRRVRGGDGKMK | 0.2 | 0.1 | 0.1 | 0.1 | 0.4 | 0.3 | 0.2 | 0.0 | 0.2 | 0.4 | 0.8 | 0.8 | 0.3 | 0.6 | 0.1 | 0.1 | 0.2 | 0.2 | 0.1 | 0.3 | Binding of serum 6 to linear peptides of protein N of SARS-CoV Urbani [1]: 0.3; Binding of serum 37 to linear peptides of protein N of SARS-CoV Urbani [1]: 0.8; Binding of serum 62 to linear peptides of protein N of SARS-CoV Urbani [1]: 0.7; Binding of serum London to linear peptides of protein N of SARS-CoV Urbani [1]: 0.5; Binding of serum SARS-green to linear peptides of protein N of SARS-CoV Urbani [1]: 0.3; Binding of serum SARS-yellow to linear peptides of protein N of SARS-CoV Urbani [1]: 0.6
PKDHIGTRNPNNNAA | 0.4 | 0.3 | 0.3 | 0.3 | 0.5 | 0.3 | 0.3 | 0.2 | 0.2 | 0.5 | 0.8 | 0.8 | 0.6 | 0.2 | 0.2 | 0.1 | 0.2 | 0.3 | 0.1 | 0.3 | Binding of serum 6 to linear peptides of protein N of SARS-CoV Urbani [1]: 0.2; Binding of serum 37 to linear peptides of protein N of SARS-CoV Urbani [1]: 0.8; Binding of serum 62 to linear peptides of protein N of SARS-CoV Urbani [1]: 0.9; Binding of serum London to linear peptides of protein N of SARS-CoV Urbani [1]: 0.5; Binding of serum SARS-green to linear peptides of protein N of SARS-CoV Urbani [1]: 0.4; Binding of serum SARS-yellow to linear peptides of protein N of SARS-CoV Urbani [1]: 0.8
LGTGPEASLPYGANK | 0.3 | 0.2 | 0.5 | 0.2 | 0.5 | 0.4 | 0.4 | 0.4 | 0.5 | 0.5 | 0.9 | 0.9 | 0.6 | 0.2 | 0.4 | 0.1 | 0.2 | 0.3 | 0.1 | 0.3 | Binding of serum 6 to linear peptides of protein N of SARS-CoV Urbani [1]: 0.2; Binding of serum 37 to linear peptides of protein N of SARS-CoV Urbani [1]: 0.7; Binding of serum 62 to linear peptides of protein N of SARS-CoV Urbani [1]: 0.7; Binding of serum London to linear peptides of protein N of SARS-CoV Urbani [1]: 0.5; Binding of serum SARS-green to linear peptides of protein N of SARS-CoV Urbani [1]: 0.5; Binding of serum SARS-yellow to linear peptides of protein N of SARS-CoV Urbani [1]: 0.7
